Test results published in US20050209295A1, “Methimazole derivatives and tautomeric cyclic thiones to inhibit cell adhesion” (priority 2004, published 2005).

How the values were obtained:
IRF-1 = experiment: TNF-alpha-induced IRF-1 protein levels (Western blot); format: cell-based, human
Method: (§1) Cell culture and treatment of HAEC: Human aortic endothelial cells (HAEC; Cambrex Bio Science Walkersville, Inc., Walkersville, Md.) are cultured in M199 supplemented with 8% FBS, 100 μg/ml heparin, 10 ng/ml endothelial growth factor, 100 μg/ml hypothalamus extract, 2 mM L-glutamine, 1% non-essential amino acids, 100 units/ml penicillin and 100 μg/ml streptomycin. HAEC are subcultured on gelatin pre-coated: 96-well tissue culture plates (Corning Incorporated; Corning, N.Y.) for viability assays and ELISA; 100-mm tissue culture dishes (BD Falcon; Franklin Lakes, N.J.) for Northern blot analyses, Western blot analyses and EMSA; 35-mm tissue culture dishes (Corning) for adhesion assays and on 24-well tissue culture plates for luciferase promoter assays (BD Falcon). All experiments are performed with confluent HAEC monolayers. Unless noted otherwise, HAEC are treated with 25 ng/ml TNF-α, in the absence or presence of C-10 or 0.25% DMSO (carrier control for C-10), for 2-24 hrs. The concentration of DMSO is held constant at 0.25% (unless indicated otherwise) for all of the C-10 conditions.
Western blot analysis: Whole cell lysates are prepared in lysis buffer (150 mM NaCl, 1% IGEPAL CA-630, 50 mM Tris-HCL pH 8.0). 20 μg of lysates are then resolved on 4-12% Bis-Tris PAGE gels under denaturing conditions using the NuPAGE Bis-Tris System (Invitrogen; Carlsbad, Calif.). Proteins are transferred to nitrocellulose membranes, which are probed with IRF-1 antibody. Subsequent binding of HRP conjugated goat anti-rabbit Ab (sc-2054, Santa Cruz Biotechnology, Inc.) is detected using Lumigen PS-3 detection reagents (Amersham Pharmacia Biotech.; Piscataway, N.J.).

VCAM-1 = experiment: ELISA of TNF-α induced VCAM-1 protein on HAEC; format: cell-based, human
Method: as §1
HAEC are washed with cold HBSS+, fixed in 1% formaldehyde at 4° C. for 20 min., washed with cold HBSS+, and incubated in cold M199 containing 8% FBS. Unless otherwise noted, from this point on all antibody dilutions and washes are carried out with M199 containing 8% FBS. Murine mAbs (primary mAbs) to ECAMs are added (10 μg/ml) and the HAEC incubated at 4° C. for 20 min. Following the incubation, the wells are washed and a peroxidase conjugated polyclonal (secondary) antibody to mouse IgG is added (diluted 1:50). After a 20 min. incubation at 4° C., the wells are washed and treated with OPD dissolved in phosphate citrate buffer containing sodium perborate. Following a 10 min. incubation at room temperature, the absorbance of the fluid in each well is determined at 450 nm using a micro-well plate spectrophotometer (Molecular Devices; Sunnyvale, Calif.). In every experiment, each condition is run in triplicate wells.

Cn1c(-c2ccccc2)cnc1S [5-Phenylmethimazole]
effect on TNF-α induced IRF-1 protein expression (IRF-1; 0.5 mM or 1 mM, 2 hr. TNF-α, HAEC): reduced | % INHIBITION of TNF-alpha-induced IRF-1 Protein levels (IRF-1; 10 :M, mean ± SD): 76 ± 12% | inhibition at 5000 µM (IRF-1; Homo sapiens, 5 mM, mean ± SD): 95 ± 5% | concentration at which significant reduction of TNF-α induced VCAM-1 protein expression is observed (VCAM-1; 4 hr. TNF-α): ≥ 0.25 mM | effect on TNF-α induced protein expression of VCAM-1 (VCAM-1; 4 hr. TNF-α): significantly reduces | concentration at which significant reduction of TNF-α induced VCAM-1 protein expression is observed (VCAM-1; 24 hr. TNF-α): ≥ 0.05 mM | effect on TNF-α induced protein expression of VCAM-1 (VCAM-1; 24 hr. TNF-α): significantly reduces
